Among the data in PubChem BioAssay (NCI) are TGI and GI50 values, retold here.

What all share (test): NCI-60 cell line screen, 48 h
The test system of test [1] is HOP-62 NSCLC.
The subject of test [2] is IGROV1 ovarian.
In test [3] the test system is KM12 colon.
The subject of test [4] is OVCAR-8 ovarian.
Test [5] has as its system SK-MEL-5 melanoma.
Test [6] relates to T-47D breast.
The subject of test [7] is U251 CNS.
In test [8] the test system is UO-31 renal.

“And” between values parts separate entries of the source, which are not always exact repeats. Identical values can stand only once.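 The compound was tested at five concentrations on cells cultured in 96-well plates, with a 48-hour exposure period. GI50 = concentration required for 50% inhibition of growth. The concentration for full growth arrest is given as TGI.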

In the case of `CCN(CC(O)COc1ccc2c(c1)[n+]([O-])nc(N)[n+]2[O-])C(C)=O` (centres undefined), the TGI in test [1], in test [2], in test [3], in test [4], in test [5] and in test [6] was more than 100 µM in each case. Besides, the TGI in test [7] and in test [8] was more than 100 µM in each case.

Regarding `O=C(Nc1n[nH]c2cc(-c3ccc(F)cc3)ccc12)C1CC1`, the GI50 is 8.37 µM in test [1]; more than 21.8 µM in test [2]; 4.11 µM in test [3]; 12.8 µM in test [4]; 5.56 µM in test [5]; 6.37 µM in test [6]. Further, the GI50 in test [7] is 10.2 µM; in test [8], 3.74 µM. In addition, the TGI in test [1] was more than 23.7 µM; in test [2], more than 25 µM; in test [3], more than 25 µM; in test [4], more than 25 µM; in test [5], more than 18.1 µM; in test [6] it was more than 21.7 µM. The TGI in test [7] and in test [8] was more than 25 µM each time.

For `CC1(/C=C/c2ccc(-c3ccccc3)cc2)CCn2cnc3ncnc(c32)N1O` (centres undefined), the GI50 in test [1] is 0.366 µM; in test [2] it was 0.337 µM; in test [3], 0.415 µM; in test [4], 0.419 µM; in test [5], 0.324 µM; in test [6], 0.462 µM. The GI50 in test [7] is 0.418 µM; in test [8], 0.162 µM. For the same compound, the TGI in test [1] is 16.4 µM; in test [2] it was 14.1 µM; in test [3], 23.1 µM; in test [4], more than 55.1 µM; in test [5], 2.75 µM; in test [6] it was 54.3 µM. Further, the results for the TGI in test [7] and in test [8] were 22 µM and 1.2 µM, respectively.

For `Nc1cc2c3ccccc3ccc2c2ccccc12`, the GI50 in test [1] was 30.6 µM; in test [2], more than 100 µM; in test [3] it was more than 100 µM; in test [4], more than 44.6 µM; in test [5] it was 16.7 µM; in test [6] it was more than 38.1 µM. Further, the GI50 in test [7] was 21.4 µM; in test [8], more than 100 µM. Besides, the TGI in test [1], in test [2], in test [3], in test [4], in test [5] and in test [6] was more than 100 µM each time. In addition, the TGI in test [7] and in test [8] was more than 100 µM in each case.

For the compound `Cc1cc(C(=O)NOCCO)c(Nc2ccc(I)cc2F)n(C)c1=O`, the TGI in test [1], in test [2], in test [3], in test [4], in test [5] and in test [6] was more than 100 µM each time. Also, the TGI in test [7] and in test [8] was more than 100 µM throughout. In addition, the GI50 is 0.00909 µM and 0.0178 µM in test [2]; 0.0263 µM and < 0.0161 µM in test [3]; more than 36.5 µM in test [4]; less than 0.01 µM in test [5]; > 10 µM and 78.9 µM in test [6]; > 10 µM and 2.81 µM in test [7]. The GI50 in test [8] is 0.0289 µM and < 0.045 µM.

Consider `CNC(=O)c1cc(Oc2ccc(NC(=O)Nc3ccc(Cl)c(C(F)(F)F)c3)cc2)ccn1`, for which the GI50 in test [1] was 2.78 µM and 2.59 µM and 2.01 µM; in test [2], 3.52 µM and 3.44 µM and 2.6 µM; in test [3], 2.42 µM and 1.86 µM and 1.8 µM; in test [4] it was 3 µM and 2.91 µM and 3.03 µM; in test [5], 1.43 µM and 1.61 µM and 1.57 µM; in test [6], 1.82 µM and 2.31 µM and 1.87 µM. The GI50 is 2.84 µM and 2.05 µM and 2.14 µM in test [7]; 3.08 µM and 3.03 µM and 2.57 µM in test [8]. Besides, the TGI in test [1] was > 10 µM and 7.97 µM and 4.81 µM; in test [2], > 10 µM and 15.3 µM and 9.14 µM; in test [3], > 10 µM and 8.07 µM and 6.97 µM; in test [4], > 10 µM and 9.06 µM and 20.2 µM; in test [5] it was 3.14 µM and 2.97 µM and 3.25 µM; in test [6] it was > 10 µM and 7.43 µM and 7.85 µM. Moreover, the TGI in test [7] is > 10 µM and 5.82 µM and 5.94 µM; in test [8] it was > 10 µM and 8.18 µM and 6.2 µM.

Consider `S=C1NC(c2ccccc2)NC(c2ccccc2)S1` (centres undefined), for which the TGI in test [1], in test [2], in test [3], in test [4], in test [5] and in test [6] was more than 100 µM each time. Also, the TGI in test [7] and in test [8] was more than 100 µM throughout.

On to `COc1ccc(C2CC(=O)Nc3c2c(C)nn3-c2nc3ccccc3[nH]2)cc1OC` (centres undefined), for which the GI50 in test [1] is 4.32 µM; in test [2], 4.67 µM; in test [3], 3.7 µM; in test [4], 4.09 µM; in test [5] it was 2.42 µM; in test [6], 4.49 µM. Moreover, the values for the GI50 in test [7] and in test [8] were 4.58 µM and 3.37 µM, respectively. The TGI in test [1] was 24.4 µM; in test [2], more than 93.3 µM; in test [3], 14.1 µM; in test [4] it was 43.6 µM; in test [5], 6.17 µM; in test [6], 50.1 µM. Further, the TGI in test [7] is 19.7 µM; in test [8], 14.6 µM.

As to `Nc1[nH]c(=S)[nH]c(=O)c1N=Nc1c(Br)cc(S(N)(=O)=O)cc1Br`, the TGI in test [1], in test [2], in test [3], in test [4], in test [5] and in test [6] was more than 100 µM throughout. The TGI in test [7] and in test [8] was more than 100 µM each time.
